Test results: patent publication US9403810B2, “Carboxamide derivatives” (Novartis AG, priority 2014, dated 2016)

Target: Smurf-1 (Homo sapiens (Human), UniProt Q9HCE7)
Experiment: HECT E3 ligase autoubiquitinylation TR-FRET assay (Smurf-1)
Assay type: biochemical
Details: 8-point dose-response curve, 3 nM to 10 uM; 45 min incubation
Excerpt: To determine the HECT E3 ligase selectivity of the compounds, a panel of biochemical HECT E3 ligase autoubiquitinylation assays was employed (Smurf-1, Smurf-2, WWP1, WWP2, ITCH, Nedd4, Nedd4L and E6AP). The conjugation of ubiquitin to a protein substrate is a multistep process. In an initial ATP-requiring step, a thioester bond is formed between the carboxyl terminus of ubiquitin and an internal cystein residue of the ubiquitin-activating enzyme (E1). Activated ubiquitin is then transferred to a specific cystein residue of an ubiquitin-conjugating enzyme (E2). E2s donate ubiquitin to a HECT E3 ligase (E3) from which it is transferred to the substrate protein. HECT E3 ligases can auto-ubiquitinylate. This event is detected in the TR-FRET (Time-Resolved Fluorescence Resonance Energy Transfer) assay used in this panel. The reaction mix contains E1, E2, tagged-E3, biotin-conjugated ubiquitin, the compound and ATP in a suitable buffer and is incubated for 45 minutes to allow auto-ubiquitinylation of the E3 ligase. To measure the extent of ubiquitinylated E3 ligase by TR-FRET, the donor fluorophore Europium cryptate (Eu3+ cryptate), conjugated to streptavidin which subsequently binds to biotinylated ubiquitin, and the modified allophycocyanin XL665 (HTRF® primary acceptor fluorophore) coupled to a tag-specific antibody (HA, His or GST), which recognizes the respective E3 ligase fusion proteins, are added after the reaction is complete. When these two fluorophores are brought together by a bimolecular interaction (in this case ubiquitinylation of the E3 ligase), a portion of the energy captured by the Cryptate during excitation is released through fluorescence emission at 620 nm, while the remaining energy is transferred to XL665. This energy is then released by XL665 as specific fluorescence at 665 nm. Light at 665 nm is emitted only through FRET with Europium.
Test and reference compounds are prepared at 180× [final] in 90% DMSO, and diluted 1:3 in 90% DMSO.
For the biochemical assay panel, 50 nl of the test compounds, reference compounds and buffer/DMSO control are transferred to the respective wells of a 384-well white GREINER “SMALL VOLUME” PS plate. The assay panel is run at room temperature on a Biomek FX liquid handling workstation. To the assay plates containing 50 nl compound or control solutions in 90% DMSO, 4.5 ul of E3 ligase solution were added per well, followed by 4.5 ul of the pre-incubated E1/E2/Ub mix or the pre-diluted ubiquitin (LOW control). Plates are shaken vigorously after each addition. In this assay the compound concentrations range from 3 nM to 10 uM in an 8-point dose-response curve.
After an incubation time of 45 min in the dark, the plates are transferred into the Pherastar fluorescence reader to measure the TR-FRET signal.

Sequence of Smurf-1 (Q9HCE7 whole entry): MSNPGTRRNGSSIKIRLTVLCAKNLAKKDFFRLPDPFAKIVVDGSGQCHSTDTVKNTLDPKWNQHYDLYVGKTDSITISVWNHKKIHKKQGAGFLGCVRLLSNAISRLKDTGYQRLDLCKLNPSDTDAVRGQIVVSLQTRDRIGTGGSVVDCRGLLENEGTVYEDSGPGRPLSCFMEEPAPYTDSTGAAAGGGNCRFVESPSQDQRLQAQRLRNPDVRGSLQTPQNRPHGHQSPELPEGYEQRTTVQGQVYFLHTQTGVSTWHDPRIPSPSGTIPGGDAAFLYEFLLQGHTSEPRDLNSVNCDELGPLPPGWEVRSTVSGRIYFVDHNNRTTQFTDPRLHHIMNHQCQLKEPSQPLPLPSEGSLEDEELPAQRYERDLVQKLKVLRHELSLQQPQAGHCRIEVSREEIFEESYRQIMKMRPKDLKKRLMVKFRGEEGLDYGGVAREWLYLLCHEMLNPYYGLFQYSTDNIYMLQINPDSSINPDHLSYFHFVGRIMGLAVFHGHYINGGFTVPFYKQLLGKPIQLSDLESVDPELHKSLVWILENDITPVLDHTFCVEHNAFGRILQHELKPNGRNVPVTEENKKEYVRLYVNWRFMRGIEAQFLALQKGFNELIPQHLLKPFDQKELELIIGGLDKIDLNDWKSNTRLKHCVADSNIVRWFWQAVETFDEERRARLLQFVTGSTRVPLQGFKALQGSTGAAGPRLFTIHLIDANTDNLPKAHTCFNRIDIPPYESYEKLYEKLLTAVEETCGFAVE

**Q.** With `Cc1c(C(=O)Nc2c(C)n(C)n(C3CCCCC3)c2=O)noc1C1CCC(C)(C)CC1` [Example 6, N-(2-Cyclohexyl-1,5-dimethyl-3-oxo-2,3-dihydro-1H-pyrazol-4-yl)-5-(4,4-dimethylcyclohexyl)-4-methylisoxazole-3-carboxamide] as the compound, how does the IC50 read?
**A.** Its IC50 is 0.0057 µM.

**Q.** Which IC50 does the source give for `Cc1c(C(=O)Nc2c(C)n(C)n(C3CCCCC3)c2=O)noc1/C=C/C(C)(C)C` [Example 9, (E)-N-(2-Cyclohexyl-1,5-dimethyl-3-oxo-2,3-dihydro-1H-pyrazol-4-yl)-5-(3,3-dimethylbut-1-en-1-yl)-4-methylisoxazole-3-carboxamide] here?
**A.** Its IC50 is 0.058 µM.

**Q.** Which IC50 does the source give for `Cc1c(C(=O)Nc2c(C)n(C)n(C3CCCCC3)c2=O)noc1C1CC(Br)C(C)CO1` (stereo not shown) [Example 21.1, 5-(4-Bromo-5-methyltetrahydro-2H-pyran-2-yl)-N-(2-cyclohexyl-1,5-dimethyl-3-oxo-2,3-dihydro-1H-pyrazol-4-yl)-4-methylisoxazole-3-carboxamide] here?
**A.** Its IC50 is 0.63 µM.

**Q.** For `Cc1c(C(=O)Nc2c(C)n(C)n(C3CCCCC3)c2=O)noc1[C@@H]1CCC[C@H](C(C)(C)C)O1` (single isomer, unassigned) [Example 16, 5-((2S,6R)-6-(tert-butyl)tetrahydro-2H-pyran-2-yl)-N-(2-cyclohexyl-1,5-dimethyl-3-oxo-2,3-dihydro-1H-pyrazol-4-yl)-4-methylisoxazole-3-carboxamide or 5-((2R,6S)-6-(tert-butyl)tetrahydro-2H-pyran-2-yl)-N-(2-cyclohexyl-1,5-dimethyl-3-oxo-2,3-dihydro-1H-pyrazol-4-yl)-4-methylisoxazole-3-carboxamide], which IC50 is on record?
**A.** Its IC50 is 0.037 µM.

**Q.** `CO[C@H]1C[C@@H](c2onc(C(=O)Nc3c(C)n(C)n(C4CCCCC4)c3=O)c2C)O[C@@H](C(C)(C)C)C1` (single isomer, unassigned) [Example 13a, 5-((2S,4R,6R)-6-(tert-butyl)-4-methoxytetrahydro-2H-pyran-2-yl)-N-(2-cyclohexyl-1,5-dimethyl-3-oxo-2,3-dihydro-1H-pyrazol-4-yl)-4-methylisoxazole-3-carboxamide or 5-((2R,4S,6S)-6-(tert-butyl)-4-methoxytetrahydro-2H-pyran-2-yl)-N-(2-cyclohexyl-1,5-dimethyl-3-oxo-2,3-dihydro-1H-pyrazol-4-yl)-4-methylisoxazole-3-carboxamide] was tested. Which IC50 did it give?
**A.** Its IC50 is 0.29 µM.

**Q.** With `Cc1c(C(=O)Nc2c(C)n(C)n(C3CCCCC3)c2=O)noc1C1CCCCC1` [Example 10, 5-Cyclohexyl-N-(2-cyclohexyl-1,5-dimethyl-3-oxo-2,3-dihydro-1H-pyrazol-4-yl)-4-methylisoxazole-3-carboxamide] as the compound, how does the IC50 read?
**A.** The IC50 was 0.05 µM.

**Q.** How did the IC50 turn out when `Cc1c(C(=O)Nc2c(C)n(C)n(C3CCCCC3)c2=O)noc1[C@@H]1OCC(C)(C)O[C@H]1C` [Example 20, N-(2-Cyclohexyl-1,5-dimethyl-3-oxo-2,3-dihydro-1H-pyrazol-4-yl)-4-methyl-5-((2R,3S)-3,5,5-trimethyl-1,4-dioxan-2-yl)isoxazole-3-carboxamide] was run?
**A.** Its IC50 is 0.18 µM.

**Q.** How did the IC50 turn out when `Cc1c(C(=O)Nc2c(C)n(C)n(C3CCCCC3)c2=O)noc1C1=CCC(C)(C)C1` [Example 3, N-(2-Cyclohexyl-1,5-dimethyl-3-oxo-2,3-dihydro-1H-pyrazol-4-yl)-5-(4,4-dimethylcyclopent-1-en-1-yl)-4-methylisoxazole-3-carboxamide] was run?
**A.** The IC50 was 0.006 µM.

**Q.** How did the IC50 turn out when `Cc1c(C(=O)Nc2c(C)n(C)n(C3CCCCC3)c2=O)noc1C1OCC(C)(C)CO1` [Example 26, N-(2-Cyclohexyl-1,5-dimethyl-3-oxo-2,3-dihydro-1H-pyrazol-4-yl)-5-(5,5-dimethyl-1,3-dioxan-2-yl)-4-methylisoxazole-3-carboxamide] was run?
**A.** The IC50 was 0.58 µM.

**Q.** `Cc1c(C(=O)Nc2c(C)n(C)n(C3CCCCC3)c2=O)noc1C1=CCC(C)(C)CC1` [Example 2.2, N-(2-Cyclohexyl-1,5-dimethyl-3-oxo-2,3-dihydro-1H-pyrazol-4-yl)-5-(4,4-dimethylcyclohex-1-en-1-yl)-4-methylisoxazole-3-carboxamide] was tested. Which IC50 did it give?
**A.** Its IC50 is 0.0009 µM.

**Q.** For `Cc1c(C(=O)Nc2c(C)n(C)n(C3CCCCC3)c2=O)noc1C1CCC(C)(C)C1` (stereo not shown) [Example 6.1, N-(2-Cyclohexyl-1,5-dimethyl-3-oxo-2,3-dihydro-1H-pyrazol-4-yl)-5-(3,3-dimethylcyclopentyl)-4-methylisoxazole-3-carboxamide], which IC50 is on record?
**A.** Its IC50 is 0.023 µM.

**Q.** `Cc1c(C(=O)Nc2c(C)n(C)n(C3CCC3)c2=O)noc1[C@@H]1CCC[C@H](C(C)(C)C)O1` (single isomer, unassigned) [Example 15a, 5-((2S,6R)-6-(tert-Butyl)tetrahydro-2H-pyran-2-yl)-N-(2-cyclobutyl-1,5-dimethyl-3-oxo-2,3-dihydro-1H-pyrazol-4-yl)-4-methylisoxazole-3-carboxamide or 5-((2R,6S)-6-(tert-Butyl)tetrahydro-2H-pyran-2-yl)-N-(2-cyclobutyl-1,5-dimethyl-3-oxo-2,3-dihydro-1H-pyrazol-4-yl)-4-methylisoxazole-3-carboxamide] was tested. Which IC50 did it give?
**A.** Its IC50 is 0.29 µM.

**Q.** With `Cc1c(C(=O)Nc2c(C)n(C)n(C3CCCCC3)c2=O)noc1CCC(C)(C)C` [Example 7, N-(2-Cyclohexyl-1,5-dimethyl-3-oxo-2,3-dihydro-1H-pyrazol-4-yl)-5-(3,3-dimethylbutyl)-4-methylisoxazole-3-carboxamide] as the compound, how does the IC50 read?
**A.** Its IC50 is 0.019 µM.

**Q.** For `CCC1CC=C(c2onc(C(=O)Nc3c(C)n(C)n(C4CCCCC4)c3=O)c2C)CC1` (stereo not shown) [Example 1.3, N-(2-Cyclohexyl-1,5-dimethyl-3-oxo-2,3-dihydro-1H-pyrazol-4-yl)-5-(4-ethylcyclohex-1-en-1-yl)-4-methylisoxazole-3-carboxamide], which IC50 is on record?
**A.** The IC50 was 0.0018 µM.

**Q.** How did the IC50 turn out when `Cc1c(C(=O)Nc2c(C)n(C)n(C3CCCCC3)c2=O)noc1C1=CCC(C(C)C)CC1` (stereo not shown) [Example 1, N-(2-Cyclohexyl-1,5-dimethyl-3-oxo-2,3-dihydro-1H-pyrazol-4-yl)-5-(4-isopropylcyclohex-1-en-1-yl)-4-methylisoxazole-3-carboxamide] was run?
**A.** The IC50 was 0.0028 µM.

**Q.** For `Cc1c(C(=O)Nc2c(C)n(C)n(C3CCCCC3)c2=O)noc1C1=CCC2(CCCO2)CC1` (stereo not shown) [Example 2.1, N-(2-Cyclohexyl-1,5-dimethyl-3-oxo-2,3-dihydro-1H-pyrazol-4-yl)-4-methyl-5-(1-oxaspiro[4.5]dec-7-en-8-yl)isoxazole-3-carboxamide], which IC50 is on record?
**A.** The IC50 was 0.064 µM.
